Molecular target: T1, Cor a 1.0401 (Corylus avellana, UniProt Q9SWR4)
T1 construct: gene CORA1.0401; tagless full-length recombinant, 160 aa, E. coli (pET11a, codon-optimised synthetic gene), 15N or 13C/15N labelled
T1 sequence (Q9SWR4 2-161 limits assumed): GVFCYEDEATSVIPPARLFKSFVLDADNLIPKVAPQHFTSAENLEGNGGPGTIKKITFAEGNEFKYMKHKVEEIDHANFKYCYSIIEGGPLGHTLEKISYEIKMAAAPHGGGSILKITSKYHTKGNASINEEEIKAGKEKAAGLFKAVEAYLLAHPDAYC
Assay: 1H, […] HSQC NMR titration
Format: binding
Details: 298 K, 60 uM protein, up to equimolar ligand, 2.2% DMSO; hydrophobic pocket

## O=c1c(O)c(-c2ccc(O)c(O)c2)oc2cc(O)cc(O)c12 [quercetin]
  1H,15N HSQC NMR titration: amino acids that were strongest affected by quercetin binding are highlighted in red
